Measured values taken from the supplement of paper PMC10307832.

Columns and labels:
Test in all cases: relative viability (nuclei count vs DMSO), 5 days (fraction); higher = more cells survive
VX-11e + Palbociclib = compound: CC1=CN=C(N=C1C2=CNC(=C2)C(=O)N[C@H](CO)C3=CC(=CC=C3)Cl)NC4=C(C=C(C=C4)F)Cl [VX-11e] + CC(=O)c1c(C)c2cnc(Nc3ccc(N4CCNCC4)cn3)nc2n(C2CCCC2)c1=O [Palbociclib] (partner 0.5 µM)
How it was run: (§1)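 Relative viability was taken as the ratio of nuclei in treated wells to nuclei in vehicle wells. Lung cancer cell lines in 1536-well plates received compounds by pin tool one day after seeding, either one drug alone or a fixed anchor-drug dose plus five library-drug doses (not always all listed) in √10 steps. Nuclei were counted on 4× images after 5 days of treatment, and values are medians of duplicate plates.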

VX-11e + Bortezomib = compound: CC1=CN=C(N=C1C2=CNC(=C2)C(=O)N[C@H](CO)C3=CC(=CC=C3)Cl)NC4=C(C=C(C=C4)F)Cl [VX-11e] + CC(C)C[C@H](NC(=O)[C@H](Cc1ccccc1)NC(=O)c1cnccn1)B(O)O [Bortezomib] (partner 0.002 µM)
How it was run: as §1

VX-11e + Foretinib = compound: CC1=CN=C(N=C1C2=CNC(=C2)C(=O)N[C@H](CO)C3=CC(=CC=C3)Cl)NC4=C(C=C(C=C4)F)Cl [VX-11e] + COc1cc2c(Oc3ccc(NC(=O)C4(C(=O)Nc5ccc(F)cc5)CC4)cc3F)ccnc2cc1OCCCN1CCOCC1 [Foretinib] (partner 0.25 µM)
How it was run: as §1

VX-11e + Pictilisib = compound: CC1=CN=C(N=C1C2=CNC(=C2)C(=O)N[C@H](CO)C3=CC(=CC=C3)Cl)NC4=C(C=C(C=C4)F)Cl [VX-11e] + CS(=O)(=O)N1CCN(Cc2cc3nc(-c4cccc5[nH]ncc45)nc(N4CCOCC4)c3s2)CC1 [Pictilisib] (partner 1 µM)
How it was run: as §1

ChaGo-K-1
relative viability (VX-11e + Palbociclib; first compound 0.04 µM): 0.982 | relative viability (VX-11e + Palbociclib; first compound 0.1265 µM): 0.821 | relative viability (VX-11e + Palbociclib; first compound 0.4 µM): 0.915 | relative viability (VX-11e + Palbociclib; first compound 1.265 µM): 0.947 | relative viability (VX-11e + Palbociclib; first compound 4 µM): 0.845 | relative viability (VX-11e + Bortezomib; first compound 0.04 µM): 1.01 | relative viability (VX-11e + Bortezomib; first compound 0.4 µM): 1.11 | relative viability (VX-11e + Bortezomib; first compound 1.265 µM): 0.759 | relative viability (VX-11e + Bortezomib; first compound 4 µM): 0.772 | relative viability (VX-11e + Foretinib; first compound 0.04 µM): 0.878 | relative viability (VX-11e + Foretinib; first compound 0.1265 µM): 0.855 | relative viability (VX-11e + Foretinib; first compound 0.4 µM): 0.941 | relative viability (VX-11e + Foretinib; first compound 1.265 µM): 0.923 | relative viability (VX-11e + Foretinib; first compound 4 µM): 0.928 | relative viability (VX-11e + Pictilisib; first compound 0.04 µM): 0.351 | relative viability (VX-11e + Pictilisib; first compound 0.4 µM): 0.587 | relative viability (VX-11e + Pictilisib; first compound 1.265 µM): 0.567 | relative viability (VX-11e + Pictilisib; first compound 4 µM): 0.569

EBC-1
relative viability (VX-11e + Bortezomib; first compound 0.04 µM): 0.512 | relative viability (VX-11e + Bortezomib; first compound 0.1265 µM): 0.528 | relative viability (VX-11e + Bortezomib; first compound 0.4 µM): 0.599 | relative viability (VX-11e + Bortezomib; first compound 1.265 µM): 0.576 | relative viability (VX-11e + Bortezomib; first compound 4 µM): 0.239 | relative viability (VX-11e + Foretinib; first compound 0.04 µM): 0.104 | relative viability (VX-11e + Foretinib; first compound 0.1265 µM): 0.107 | relative viability (VX-11e + Foretinib; first compound 0.4 µM): 0.0992 | relative viability (VX-11e + Foretinib; first compound 1.265 µM): 0.111 | relative viability (VX-11e + Foretinib; first compound 4 µM): 0.109 | relative viability (VX-11e + Pictilisib; first compound 0.04 µM): 0.494 | relative viability (VX-11e + Pictilisib; first compound 0.1265 µM): 0.436 | relative viability (VX-11e + Pictilisib; first compound 0.4 µM): 0.378 | relative viability (VX-11e + Pictilisib; first compound 1.265 µM): 0.201 | relative viability (VX-11e + Pictilisib; first compound 4 µM): 0.162

EKVX
relative viability (VX-11e + Palbociclib; first compound 0.04 µM): 0.397 | relative viability (VX-11e + Palbociclib; first compound 0.1265 µM): 0.378 | relative viability (VX-11e + Palbociclib; first compound 0.4 µM): 0.452 | relative viability (VX-11e + Palbociclib; first compound 1.265 µM): 0.368 | relative viability (VX-11e + Palbociclib; first compound 4 µM): 0.19 | relative viability (VX-11e + Bortezomib; first compound 0.04 µM): 1.06 | relative viability (VX-11e + Bortezomib; first compound 0.1265 µM): 0.977 | relative viability (VX-11e + Bortezomib; first compound 0.4 µM): 0.951 | relative viability (VX-11e + Bortezomib; first compound 1.265 µM): 1 | relative viability (VX-11e + Bortezomib; first compound 4 µM): 0.406 | relative viability (VX-11e + Foretinib; first compound 0.04 µM): 0.765 | relative viability (VX-11e + Foretinib; first compound 0.1265 µM): 0.927 | relative viability (VX-11e + Foretinib; first compound 0.4 µM): 0.812 | relative viability (VX-11e + Foretinib; first compound 1.265 µM): 0.675 | relative viability (VX-11e + Foretinib; first compound 4 µM): 0.466 | relative viability (VX-11e + Pictilisib; first compound 0.04 µM): 0.447 | relative viability (VX-11e + Pictilisib; first compound 0.1265 µM): 0.545 | relative viability (VX-11e + Pictilisib; first compound 0.4 µM): 0.461 | relative viability (VX-11e + Pictilisib; first compound 1.265 µM): 0.404 | relative viability (VX-11e + Pictilisib; first compound 4 µM): 0.19

EMC-BAC-2
relative viability (VX-11e + Palbociclib; first compound 0.04 µM): 0.563 | relative viability (VX-11e + Palbociclib; first compound 0.1265 µM): 0.459 | relative viability (VX-11e + Palbociclib; first compound 0.4 µM): 0.533 | relative viability (VX-11e + Palbociclib; first compound 1.265 µM): 0.553 | relative viability (VX-11e + Palbociclib; first compound 4 µM): 0.432 | relative viability (VX-11e + Bortezomib; first compound 0.04 µM): 1.04 | relative viability (VX-11e + Bortezomib; first compound 0.1265 µM): 1.01 | relative viability (VX-11e + Bortezomib; first compound 0.4 µM): 1.14 | relative viability (VX-11e + Bortezomib; first compound 1.265 µM): 1.02 | relative viability (VX-11e + Bortezomib; first compound 4 µM): 0.858 | relative viability (VX-11e + Foretinib; first compound 0.04 µM): 1.05 | relative viability (VX-11e + Foretinib; first compound 0.1265 µM): 0.921 | relative viability (VX-11e + Foretinib; first compound 0.4 µM): 1.08 | relative viability (VX-11e + Foretinib; first compound 1.265 µM): 0.982 | relative viability (VX-11e + Foretinib; first compound 4 µM): 0.697 | relative viability (VX-11e + Pictilisib; first compound 0.04 µM): 0.468 | relative viability (VX-11e + Pictilisib; first compound 0.1265 µM): 0.488 | relative viability (VX-11e + Pictilisib; first compound 0.4 µM): 0.516 | relative viability (VX-11e + Pictilisib; first compound 1.265 µM): 0.432 | relative viability (VX-11e + Pictilisib; first compound 4 µM): 0.337
